The test system of data set [1] is HCV replicon RNA (GenBank Accession No. AJ242654). As to the kind of experiment: HCV Replicon Assay (replicon RNA reduction and/or Fluc reporter signal). Type of data set: cell-based, Hepatitis C virus. To be noted: Hepatitis C virus, 72 h, replicon-containing cells cultured with test compound for up to 3 days. Summed up: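 Bicistronic replicon-containing cells cultured with compound for up to 3 days, with interferon as positive control. Inhibition quantified by replicon RNA reduction and/or Fluc reporter signal; IC50 values generally derived from replicon RNA reduction.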
(Replicon systems follow genome replication, usually without infectious particles.)

As usually defined, the IC50 is the concentration needed to halve the response being measured. The term melting point denotes the temperature, or range, at which the solid turns liquid. `Cc1cnc2c(c1)c(C#N)c(-c1ccc(S(=O)(=O)NC(C)(C)C)cn1)n2-c1ccccn1` [Cpd 525, N-tert-butyl-6-[3-cyano-5-methyl-1-(pyridin-2-yl)-1H-pyrrolo[2,3-b]pyridin-2-yl]pyridine-3-sulfonamide] came in with a melting point of 214.2 to 215.4 °C. In data set [1], this molecule registered an IC50 of 500 to 2000 nM.

Take `CC(C)(C)NS(=O)(=O)c1ccc(-c2c(C#N)c3cc(C(F)(F)F)cnc3n2-c2cnccn2)nc1` [Cpd 526, N-tert-butyl-6-[3-cyano-1-(pyrazin-2-yl)-5-(trifluoromethyl)-1H-pyrrolo[2,3-b]pyridin-2-yl]pyridine-3-sulfonamide]: the melting point lay in the range of 214.2 to 215.4 °C. The molecule also yielded an IC50 in data set [1] of less than 500 nM.

`CC(C)(C)NS(=O)(=O)c1ccc(-c2c(C(N)=O)c3cc(F)cnc3n2-c2ccccc2)nc1` [Cpd 527, 2-[5-(tert-butylsulfamoyl)pyridin-2-yl]-5-fluoro-1-phenyl-1H-pyrrolo[2,3-b]pyridine-3-carboxamide] returned a melting point of 275.2 to 276.9 °C. Also, the IC50 in data set [1] was in the range of 500 to 2000 nM.

The values above are taken from patent publication US9593108B2, “Compounds and methods for antiviral treatment” (PTC Therapeutics, Inc., priority 2009, dated 2017).
